In one assay the target is T1, Raf-1 (c-Raf) (Homo sapiens, UniProt P04049).
T1 construct: Sf9 insect cell lysate containing full length 6his-tagged recombinant human c-Raf; host or cells: c-Raf: Sf9 insect cell lysate; MEK1 and MAPK: E. coli
T1 sequence (P04049 whole entry): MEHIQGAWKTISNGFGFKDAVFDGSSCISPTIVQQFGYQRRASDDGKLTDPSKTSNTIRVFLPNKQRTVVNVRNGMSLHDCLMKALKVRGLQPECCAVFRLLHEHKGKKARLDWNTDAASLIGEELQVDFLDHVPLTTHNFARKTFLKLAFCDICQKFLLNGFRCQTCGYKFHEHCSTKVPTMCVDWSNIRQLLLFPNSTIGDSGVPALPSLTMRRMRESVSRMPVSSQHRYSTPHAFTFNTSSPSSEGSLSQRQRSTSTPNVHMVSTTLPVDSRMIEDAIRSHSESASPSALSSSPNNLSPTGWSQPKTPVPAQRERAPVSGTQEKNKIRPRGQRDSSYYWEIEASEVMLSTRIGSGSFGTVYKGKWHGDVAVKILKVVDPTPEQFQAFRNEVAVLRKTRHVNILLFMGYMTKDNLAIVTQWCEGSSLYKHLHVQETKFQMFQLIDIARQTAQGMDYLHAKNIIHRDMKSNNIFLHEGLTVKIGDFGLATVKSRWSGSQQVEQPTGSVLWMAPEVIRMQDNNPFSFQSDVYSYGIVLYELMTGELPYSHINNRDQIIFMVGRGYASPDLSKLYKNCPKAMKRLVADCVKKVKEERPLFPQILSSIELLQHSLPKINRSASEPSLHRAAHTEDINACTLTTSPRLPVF
Put plainly: Raf1 kinase cascade assay procedure. The assay is classed as biochemical.
Settings: not given
As to the method:
(Specific Activity: ~200U/ml). Human Non-active Mek-1-GST and human GST-MAP kinase (recombinant proteins produced in E. coli).
• 1. Assay Dilution Buffer (ADB): 20mM MOPS, pH 7.2, 25mM β-glycerol phosphate, 5mM EGTA, 1mM sodium orthovanadate, 1mM dithiothreitol. • 2. Magnesium/ATP Cocktail: 500µM cold ATP and 75 mM magnesium chloride in ADB. • 4. Active Kinase: Human Active c-Raf: Use at 0.4U per assay point • 5. Non-active GST-MEK1: Use at 0.1µg per assay point. • 6. Non-active GST-p42 MAP Kinase: Use at 1.0 µg per assay point
• 1. TBST - Tris (50 mM, pH 7.5), NaCl (150 mM), Tween-20 (0.05 %) • 2. Superblock (Pierce) • 3. Anti-GST Ab (Pharmacia) • 4. Anti-Phospho MAPK (Sigma) • 5. Anti-Mouse Ab / Europium conjugate (Wallac)
First Stage: c-Raf Dependent Activation of GST-MEK and GST-MAPK • 1. Add […] of ADB per assay (i.e. per well of a 96 well plate) • 2. Add 10 ml of 0.5 mM cold ATP and 75 mM magnesium chloride in ADB. • 3. Add 2 ml of c-Raf (0.4U/assay), in conjunction with 1.6ml non-active MEK1 ([…]). • 4. Add 4 ml of non-active GST-p42 MAP Kinase (1.0 mg/assay). • 5. Incubate for 60 minutes at 30°C in a shaking incubator. • 6. Transfer this mixture to an anti-GST Ab coated 96 well plate (Nunc Immunosorb plates coated o/n with a-GST, then blocked with Pierce Superblock). • 7. Incubate for 60 minutes at 30°C in a shaking incubator Wash 3X with TBST, add Anti-Phospho MAPK (Sigma) (1:3000) • 6. Incubate for 60 minutes at 30°C in a shaking incubator • 7. Wash 3X with TBST, add Anti-Mouse Ab / Europium conjugate (Wallac) (1:500) • 8. Incubate for 60 minutes at 30°C in a shaking incubator • 9. Wash 3X with TBST, Read plates in Wallac Victor model Plate Reader. • 10. Collect data analyze in Excel for single point and IC50 determinations.
Typically Raf-1 assay is run at compound concentrations from 10 µM to 1 nM in half log dilutions. (% inhibition is determined for each compound concentration).
T2 sequence (P12931 whole entry): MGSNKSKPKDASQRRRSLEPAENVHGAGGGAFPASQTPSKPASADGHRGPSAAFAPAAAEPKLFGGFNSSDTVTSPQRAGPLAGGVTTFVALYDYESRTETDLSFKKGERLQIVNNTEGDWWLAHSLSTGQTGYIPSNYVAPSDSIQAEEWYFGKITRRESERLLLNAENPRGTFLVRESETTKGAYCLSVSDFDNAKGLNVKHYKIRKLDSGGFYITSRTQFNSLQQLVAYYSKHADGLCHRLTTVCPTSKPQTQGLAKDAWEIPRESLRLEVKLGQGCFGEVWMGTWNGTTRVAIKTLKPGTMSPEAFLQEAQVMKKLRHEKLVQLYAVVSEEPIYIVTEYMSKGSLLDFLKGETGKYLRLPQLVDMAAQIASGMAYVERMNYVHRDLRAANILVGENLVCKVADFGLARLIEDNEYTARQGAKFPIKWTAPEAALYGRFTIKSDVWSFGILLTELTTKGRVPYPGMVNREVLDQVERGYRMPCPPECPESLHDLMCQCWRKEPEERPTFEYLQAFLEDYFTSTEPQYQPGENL
The compound `COc1cc(Nc2c(C#N)cnc3cc4cc(OCCN5CCOCC5)c(OC)cc4cc23)c(Cl)cc1Cl` [Example 129, 4-(2,4-dichloro-5-methoxyanilino)-7-methoxy-8-[2-(4-morpholinyl)ethoxy]benzo[g]quinoline-3-carbonitrile] registered an IC50 of 0.3 µM.

For `N#Cc1cnc2cc3ccccc3cc2c1Nc1ccc(Oc2ccccc2)cc1` [Example 3, 4-(4-Phenoxyanilino)benzo[g]quinoline-3-carbonitrile], the IC50 was determined as 0.09 µM.

In a further assay the test system is Rat2 fibroblasts stably transformed with v-Src/Hu c-Src fusion gene. Put plainly: Anchorage independent Src-transformed fibroblast proliferation test procedure. The note with it: Rattus norvegicus, @ dose 10 µM, read-out: Src TF prolif %Inh. The class given is cell-based. From the text:
Anchorage Independent Src-transformed Fibroblast Proliferation Test Procedure: Rat2 fibroblasts stably transformed with a plasmid containing a CMV promotor controlled v-Src/Hu c-Src fusion gene in which the catalytic domain of human c-Src is inserted in place of the v-Src catalytic domain in the v-Src gene are used for the measurement of src dependent suspension growth.
Consider `COc1cc(Nc2c(C#N)cnc3cc4c(cc23)ncn4CCN2CCOCC2)c(C)cc1Cl` [Example 57, 8-(4-Chloro-5-methoxy-2-methylanilino)-3-[2-(4-morpholinyl)ethyl]-3H-imidazo[4,5-g]quinline-7-carbonitrile], for which the inhibition at 10 µM came to 0%.

Still in this assay, the particulars now being: Rattus norvegicus, the 3rd table c6, (a)-(d) = average of two to five runs, read-out: Src TF prolif IC50.
On to `COc1cc(Nc2c(C#N)cnc3cc4cc(OCCN5CCN(C)CC5)c(OC)cc4cc23)c(Cl)cc1C` [Example 203, 4-(2-Chloro-5-methoxy-4-methylanilino)-7-methoxy-8-[2-(4-methyl-1-piperazinyl)ethoxy]benzo[g]quinoline-3-carbonitrile], for which the IC50 is 0.071 µM.

Take `COc1cc(Nc2c(C#N)cnc3nc4cc(OCCCl)c(OC)cc4cc23)c(Cl)cc1Cl` [Example 172, 8-(2-Chloroethoxy)-4-(2,4-dichloro-5-methoxyanilino)-7-methoxybenzo[b][1,8]naphthyridine-3-carbonitrile]: the IC50 came to 1.88 µM.

As to `CCOc1cc2cc3ncc(C#N)c(Nc4cc(OC)c(Cl)cc4C)c3cc2cc1OCCN1CCOCC1` [Example 190, 4-(4-Chloro-5-methoxy-2-methylanilino)-8-ethoxy-7-[2-(4-morpholinyl)ethoxy]benzo[g]quinoline-3-carbonitrile], the IC50 worked out at 0.17 µM.

In the case of `COc1cc(Nc2c(C#N)cnc3cc4cc(OCCn5ccnn5)c(OC)cc4cc23)c(Cl)cc1Cl` [Example 159, 4-(2,4-Dichloro-5-methoxyphenylamino)-7-methoxy-8-(2-[1,2,3]triazol-1-yl-ethoxy)benzo[g]quinoline-3-carbonitrile], the IC50 stood at 0.073 µM.

With `CCOc1cc2cc3c(Nc4cc(OC)c(Cl)cc4C)c(C#N)cnc3cc2cc1OCCN1CCOCC1` [Example 191, 4-(4-Chloro-5-methoxy-2-methylanilino)-7-ethoxy-8-[2-(4-morpholinyl)ethoxy]benzo[g]quinoline-3-carbonitrile], the IC50 was found to be 0.022 µM.

Take `COc1cc(Nc2c(C#N)cnc3nc4cc(OCCN5CCOCC5)c(OC)cc4cc23)c(Cl)cc1Cl` [Example 173, 4-(2,4-Dichloro-5-methoxyanilino)-7-methoxy-8-[2-(4-morpholinyl)ethoxy]benzo[b][1,8]naphthyridine-3-carbonitrile]: the IC50 is 3.74 µM.

With `COc1cc(Nc2c(C#N)cnc3cc4cc(OC)c(OCCN5CCC(O)CC5)cc4cc23)c(Cl)cc1C` [Example 207, 4-(2-Chloro-5-methoxy-4-methylanilino)-8-methoxy-7-[2-(4-hydroxy-1-piperidinyl)ethoxy]benzo[g]quinoline-3-carbonitrile], the half-maximal inhibitory concentration (IC50) amounted to 0.929 µM.

Regarding `COc1cc(Nc2c(C#N)cnc3cc4cc(OCCN5CCN(C)CC5)c(OC)cc4cc23)c(Cl)cc1F` [Example 211, 4-(2-Chloro-4-fluoro-5-methoxyanilino)-7-methoxy-8-[2-(4-methyl-1-piperazinyl)ethoxy]benzo[g]quinoline-3-carbonitrile], the IC50 stood at 0.128 µM.

Turning to `CCOc1cc2cc3c(Nc4cc(OC)c(Cl)cc4C)c(C#N)cnc3cc2cc1OCCN(CC(N)=O)CC(N)=O` [Example 194, 2-(Carbamoylmethyl-{2-[4-(4-chloro-5-methoxy-2-methylphenylamino)-3-cyano-7-ethoxybenzo[g]quinolin-8-yloxy]-ethyl}-amino)-acetamide], the 50% inhibitory concentration (IC50) is over 10 µM.

Take `COc1cc(Nc2c(C#N)cnc3cc4cc(OCCn5nccn5)c(OC)cc4cc23)c(Cl)cc1Cl` [Example 158, 4-(2,4-Dichloro-5-methoxyphenylamino)-7-methoxy-8-(2-[1,2,3]triazol-2-yl-ethoxy)benzo[g]quinoline-3-carbonitrile]: the IC50 is 0.067 µM.

For `COc1cc(Nc2c(C#N)cnc3cc4cc(OC)c(OCCN5CCN(C)CC5)cc4cc23)c(Cl)cc1F` [Example 201, 4-(2-Chloro-4-fluoro-5-methoxyanilino)-8-methoxy-7-[2-(4-methyl-1-piperazinyl)ethoxy]benzo[g]quinoline-3-carbonitrile], the IC50 worked out at 0.175 µM.

As to `COc1cc(Nc2c(C#N)cnc3cc4cc(OC)c(OCCN5CCN(C)CC5)cc4cc23)c(Cl)cc1C` [Example 202, 4-(2-Chloro-5-methoxy-4-methylanilino)-8-methoxy-7-[2-(4-methyl-1-piperazinyl)ethoxy]benzo[g]quinoline-3-carbonitrile], the IC50 worked out at 0.068 µM.

For the compound `COc1cc(Nc2c(C#N)cnc3nc4cc(OC)c(OC)cc4cc23)c(Cl)cc1Cl` [Example 165, 4-(2,4-Dichloro-5-methoxyanilino)-7,8-dimethoxybenzo[b] [1,8]naphthyridine-3-carbonitrile], the IC50 is over 10 µM.

Regarding `COc1cc(Nc2c(C#N)cnc3cc4cc(OCCCN5CCOCC5)c(OC)cc4cc23)c(Cl)cc1Cl` [Example 157, 4-(2,4-dichloro-5-methoxyphenylamino)-7-methoxy-8-(3-morpholin-4-yl-propoxy)benzo[g]quinoline-3-carbonitrile], the half-inhibitory concentration (IC50) amounted to 0.038 µM.

Regarding `COc1cc(Nc2c(C#N)cnc3cc4cc(OC)c(OCCN5CCOCC5)cc4cc23)c(Cl)cc1F` [Example 209, 4-(2-Chloro-4-fluoro-5-methoxyanilino)-8-methoxy-7-[2-(4-morpholinyl)ethoxy]benzo[g]quinoline-3-carbonitrile], the IC50 is 0.309 µM.

Another assay has as its target T2, p60^c-src (Src) (Homo sapiens, UniProt P12931).
T2 construct: purchased Upstate Biotechnologies
Put plainly: Src kinase test procedure (Elisa format). The assay is classed as biochemical. Particulars: dose 0.1 µM; read-out: Src %Inh. As to the method:
Inhibitors of p60^c-src (partially purified preparation purchased from Upstate Biotechnologies) tyrosine kinase activity are analyzed in an Elisa format. […] HRP-conjugated anti-phosphotyrosine is used to detect phosphorylated peptide via a color reaction. Conditions recommended by the manufacturer are employed.
Reaction conditions: Five microliter aliquots of each compound prepared fresh at the time of the assay are added as a solution in 10mM HEPES pH 7.5, 10% DMSO to the reaction well. Thirty-five microliters of reaction mix containing Src, buffer and peptide/bovine serum albumin mix are added to the compound wells and incubated at 30°C for 10 minutes (reaction buffer: 50mM TrisHCl pH 7.5, 10mM MgCl2, 0.1mM EGTA, 0.5mM Na3VO4). The reaction is started by addition of 10 microliters of ATP, incubated at 30°C for 1 hour, and stopped by addition of 20 microliters of 0.5M EDTA. The reaction mixture with the phosphorylated peptide is then transferred to a streptavidin-coated microtiter plate (provided in the kit) and allowed to bind for 20 minutes. Unbound peptide and reaction mixture is decanted and the plate is washed with PBS six times. Horseradish peroxidase-conjugated phosphotyrosine antibody supplied in the kit is incubated with the plate for one hour, then decanted. The plate is again washed with PBS six times.
As for `COc1cc(Nc2c(C#N)cnc3nc4cc(OCCN5CCOCC5)c(OC)cc4cc23)c(Cl)cc1Cl` [Example 173, 4-(2,4-Dichloro-5-methoxyanilino)-7-methoxy-8-[2-(4-morpholinyl)ethoxy]benzo[b][1,8]naphthyridine-3-carbonitrile], the inhibition at 0.1 µM is 33%.

Consider `COc1ccc2cc3ncc(C#N)c(Nc4ccc(Cl)cc4Cl)c3cc2c1` [Example 103, 4-(2,4-Dichloroanilino)-7-methoxybenzo[g]quinoline-3-carbonitrile], for which the inhibition at 0.1 µM was found to be 30%.

`COc1ccc2cc3c(Nc4ccc(Cl)cc4Cl)c(C#N)cnc3cc2c1` [Example 104, 4-(2,4-dichloroanilino)-8-methoxybenzo[g]quinoline-3-carbonitrile]: the inhibition at 0.1 µM amounted to 30%.

Staying with this assay, now noted: dose 5 µM; read-out: Src %Inh.
As to `COc1cc2cc3c(Nc4ccc(Cl)cc4Cl)c(C#N)cnc3nc2cc1OC` [Example 177, 4-(2,4-Dichloroanilino)-7,8-dimethoxybenzo[b] [1,8]naphthyridine-3-carbonitrile], the inhibition at 5 µM came out at 30%.

Still in this assay, the particulars now being: dose 10 µM.
In the case of `N#Cc1cnc2c(oc3ccccc32)c1Nc1ccc(Cl)cc1F` [Example 86, 4-(4-Chloro-2-fluorophenylamino)benzo[4,5]furo[3,2-b]pyridine-3-carbonitrile], the “Src %Inh” value was 46%.

Staying with this assay, now noted: dose 10 µM; read-out: Src %Inh.
For the compound `COc1cc(Nc2c(C#N)cnc3c2sc2ccc([N+](=O)[O-])cc23)c(C)cc1Cl` [Example 75, 4-(4-Chloro-5-methoxy-2-methylphenylamino)-8-nitrobenzo[4,5]thieno[3,2-b]pyridine-3-carbonitrile], the inhibition at 10 µM was determined as 0%.

`N#Cc1cnc2c(oc3ccccc32)c1Nc1ccc(Cl)cc1F` [Example 86, 4-(4-Chloro-2-fluorophenylamino)benzo[4,5]furo[3,2-b]pyridine-3-carbonitrile]: the inhibition at 10 µM stood at 54%.

One may read the IC50 as the concentration needed to halve the response being measured.

(Values after EP1242382B1, “TRICYCLIC PROTEIN KINASE INHIBITORS” (Wyeth, priority 1999, dated 2001).)
